Reference: publication PMC12162337, “Vitexicarpin suppresses colorectal and non-small cell lung cancer via selective inhibition of Anoctamin 1” (Frontiers in Pharmacology, 2025)

Columns and labels:
Format in all cases: cell-based
CFTR = target: T1, CFTR (Homo sapiens, UniProt P13569); experiment: short-circuit current (Ussing chamber), forskolin-activated; complete block at […]
T1 construct: CFTR-expressing FRT cells

hERG channel = target: T2, hERG channel (Homo sapiens, UniProt Q12809); experiment: automated patch clamp (PatchLiner), hERG tail current
T2 construct: gene KCNH2; hERG-overexpressing HEK cells

[1] = target: T3, Anoctamin 1 (ANO1, TMEM16A) (Homo sapiens, UniProt Q5XXA6); experiment: YFP iodide-influx quenching assay and short-circuit current (Ussing chamber)
T3 construct: endogenous ANO1 in PC9-YFP cells; ANO1-expressing FRT cells
T3 sequence (Q5XXA6 1-986): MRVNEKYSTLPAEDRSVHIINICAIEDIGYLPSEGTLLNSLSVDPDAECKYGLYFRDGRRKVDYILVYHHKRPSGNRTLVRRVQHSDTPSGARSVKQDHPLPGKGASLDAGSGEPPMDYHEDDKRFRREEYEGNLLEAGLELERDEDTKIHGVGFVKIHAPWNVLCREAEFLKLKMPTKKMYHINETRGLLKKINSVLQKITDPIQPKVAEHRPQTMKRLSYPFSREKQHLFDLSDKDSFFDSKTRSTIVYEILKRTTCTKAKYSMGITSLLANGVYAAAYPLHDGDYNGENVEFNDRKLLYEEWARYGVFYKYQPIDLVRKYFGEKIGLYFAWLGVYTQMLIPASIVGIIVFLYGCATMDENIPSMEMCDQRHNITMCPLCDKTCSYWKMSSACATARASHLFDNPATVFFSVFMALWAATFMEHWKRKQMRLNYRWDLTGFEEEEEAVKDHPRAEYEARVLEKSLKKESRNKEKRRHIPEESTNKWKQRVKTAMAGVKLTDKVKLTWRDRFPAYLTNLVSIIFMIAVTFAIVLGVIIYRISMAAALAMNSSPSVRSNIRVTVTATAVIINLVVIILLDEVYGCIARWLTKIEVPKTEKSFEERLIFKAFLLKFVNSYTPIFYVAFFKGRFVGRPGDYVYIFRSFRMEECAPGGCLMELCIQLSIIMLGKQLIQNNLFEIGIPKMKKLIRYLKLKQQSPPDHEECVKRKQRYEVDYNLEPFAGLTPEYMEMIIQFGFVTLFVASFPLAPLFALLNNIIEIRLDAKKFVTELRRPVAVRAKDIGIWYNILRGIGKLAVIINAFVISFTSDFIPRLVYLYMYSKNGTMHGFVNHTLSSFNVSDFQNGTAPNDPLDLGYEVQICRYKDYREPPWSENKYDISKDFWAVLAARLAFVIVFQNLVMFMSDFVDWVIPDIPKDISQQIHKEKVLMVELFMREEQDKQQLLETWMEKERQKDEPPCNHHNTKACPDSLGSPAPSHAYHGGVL

T2 sequence (Q12809 whole entry): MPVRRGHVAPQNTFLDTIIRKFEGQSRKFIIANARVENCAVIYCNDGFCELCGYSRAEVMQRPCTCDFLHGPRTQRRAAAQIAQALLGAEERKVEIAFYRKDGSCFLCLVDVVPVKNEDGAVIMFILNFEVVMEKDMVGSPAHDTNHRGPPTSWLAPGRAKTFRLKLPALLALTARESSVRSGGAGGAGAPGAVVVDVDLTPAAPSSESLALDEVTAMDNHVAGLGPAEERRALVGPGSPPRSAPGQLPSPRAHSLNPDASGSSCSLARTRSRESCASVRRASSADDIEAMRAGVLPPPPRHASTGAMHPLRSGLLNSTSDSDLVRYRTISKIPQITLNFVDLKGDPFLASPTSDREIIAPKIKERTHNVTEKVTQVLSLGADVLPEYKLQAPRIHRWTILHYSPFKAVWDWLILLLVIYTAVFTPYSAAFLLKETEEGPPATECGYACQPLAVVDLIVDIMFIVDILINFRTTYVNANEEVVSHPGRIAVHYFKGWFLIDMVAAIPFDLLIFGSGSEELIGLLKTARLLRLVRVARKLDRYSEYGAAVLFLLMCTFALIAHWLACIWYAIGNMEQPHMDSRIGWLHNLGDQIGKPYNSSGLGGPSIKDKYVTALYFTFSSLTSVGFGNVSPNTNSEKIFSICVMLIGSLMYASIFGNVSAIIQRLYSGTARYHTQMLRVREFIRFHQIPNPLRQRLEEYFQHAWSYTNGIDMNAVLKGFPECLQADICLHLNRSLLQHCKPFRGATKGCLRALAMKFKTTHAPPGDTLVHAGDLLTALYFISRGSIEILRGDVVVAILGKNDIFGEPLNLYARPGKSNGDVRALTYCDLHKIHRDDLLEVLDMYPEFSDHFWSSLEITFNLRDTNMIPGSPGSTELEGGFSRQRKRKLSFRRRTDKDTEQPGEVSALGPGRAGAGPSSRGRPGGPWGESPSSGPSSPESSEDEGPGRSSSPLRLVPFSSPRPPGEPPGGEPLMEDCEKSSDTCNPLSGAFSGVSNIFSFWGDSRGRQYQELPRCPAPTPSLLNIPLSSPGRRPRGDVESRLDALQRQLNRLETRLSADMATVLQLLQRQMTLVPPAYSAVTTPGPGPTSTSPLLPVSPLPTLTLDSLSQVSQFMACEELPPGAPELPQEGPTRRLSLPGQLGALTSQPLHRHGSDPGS
T1 sequence (P13569 whole entry): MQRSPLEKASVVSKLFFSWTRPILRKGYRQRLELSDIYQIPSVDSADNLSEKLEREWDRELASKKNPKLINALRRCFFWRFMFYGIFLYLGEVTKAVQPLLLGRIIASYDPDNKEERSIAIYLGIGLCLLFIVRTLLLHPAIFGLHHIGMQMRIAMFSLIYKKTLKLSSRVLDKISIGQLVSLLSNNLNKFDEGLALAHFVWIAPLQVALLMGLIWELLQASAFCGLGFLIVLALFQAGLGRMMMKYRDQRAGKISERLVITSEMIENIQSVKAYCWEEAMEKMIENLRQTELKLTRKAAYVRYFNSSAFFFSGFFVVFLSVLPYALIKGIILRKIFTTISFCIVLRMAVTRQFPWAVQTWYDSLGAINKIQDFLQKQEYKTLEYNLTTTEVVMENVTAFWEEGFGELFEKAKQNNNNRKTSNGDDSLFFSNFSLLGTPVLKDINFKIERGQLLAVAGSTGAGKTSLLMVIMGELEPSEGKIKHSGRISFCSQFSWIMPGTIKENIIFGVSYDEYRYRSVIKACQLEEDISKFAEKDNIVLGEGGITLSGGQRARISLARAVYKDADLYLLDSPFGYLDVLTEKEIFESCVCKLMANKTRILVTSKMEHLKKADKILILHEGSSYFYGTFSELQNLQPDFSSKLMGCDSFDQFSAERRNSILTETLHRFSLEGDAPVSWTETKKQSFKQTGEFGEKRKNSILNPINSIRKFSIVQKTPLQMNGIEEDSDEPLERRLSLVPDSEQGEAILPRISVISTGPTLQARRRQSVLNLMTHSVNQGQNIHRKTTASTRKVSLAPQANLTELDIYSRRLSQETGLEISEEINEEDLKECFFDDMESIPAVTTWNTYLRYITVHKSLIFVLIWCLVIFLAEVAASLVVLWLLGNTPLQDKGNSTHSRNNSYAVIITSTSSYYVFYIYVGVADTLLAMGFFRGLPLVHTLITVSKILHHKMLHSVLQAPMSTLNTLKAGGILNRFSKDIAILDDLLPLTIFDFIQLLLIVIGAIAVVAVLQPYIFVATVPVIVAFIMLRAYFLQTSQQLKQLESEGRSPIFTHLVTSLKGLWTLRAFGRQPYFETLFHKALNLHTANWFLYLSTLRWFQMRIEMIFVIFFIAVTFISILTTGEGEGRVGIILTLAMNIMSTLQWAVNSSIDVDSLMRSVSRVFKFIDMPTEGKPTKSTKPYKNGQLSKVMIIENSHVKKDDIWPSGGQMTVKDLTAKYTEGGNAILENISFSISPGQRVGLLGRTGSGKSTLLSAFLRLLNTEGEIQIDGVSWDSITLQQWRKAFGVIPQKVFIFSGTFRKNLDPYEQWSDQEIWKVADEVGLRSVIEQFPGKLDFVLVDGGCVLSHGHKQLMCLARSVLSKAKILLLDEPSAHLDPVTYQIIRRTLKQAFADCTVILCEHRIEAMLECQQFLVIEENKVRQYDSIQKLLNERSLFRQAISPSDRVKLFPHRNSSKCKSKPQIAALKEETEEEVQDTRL

| SMILES | short-circuit current (Ussing chamber), forskolin-activated; complete block at 1 (CFTR) [µM] | IC50 (hERG channel) [µM] | YFP iodide-influx quenching assay and short-circuit current (Ussing chamber) [1] |
| --- | --- | --- | --- |
| O=C(O)c1ccc(/C=C2\SC(=S)N(c3cccc(C(F)(F)F)c3)C2=O)cc1 [CFTRinh-172] | 10 | – | – |
| COc1ccc(-c2oc3cc(OC)c(OC)c(O)c3c(=O)c2OC)cc1O [vitexicarpin, 3′,5-dihydroxy-3,4′,6,7-tetramethoxyflavone] | – | 35.4 | vitexicarpin inhibited ANO1 activation in a dose-dependent manner (Figure 2A) |
